# System: Macrophage RAW264.7
# Assay: NO production by macrophage RAW264.7 stimulated with polysaccharide (Griess reagent)
# Assay type: cell-based
# Settings: RAW264.7 cells, positive control 1 μg/mL lipopolysaccharide (LPS), 24 h incubation, supernatant, 540 nm
# Experimental: Macrophage RAW264.7 is stimulated using Fomes officinalis polysaccharides prepared in Embodiments 1-3, and the concentrations of NO produced therefrom are determined, and the results are shown in Table 1. Specific experimental methods: 100 microliters (L) of RAW264.7 cells (1×10^6 cells/mL) are added to 96 microtiter plates and pre-cultured in a 37° C. 5% CO2 incubator for 24 hours (h). The supernatant is discarded, and 200 μL of 5 micrograms per milliliter (μg/mL) polysaccharide solution is added to the cells, the culture solution is used as a negative control, and 1 μg/mL lipopolysaccharide (LPS) is used as a positive control, then the cells are incubated for 24 h. To determine the NO level in the supernatant, 100 μL of supernatant is added with 100 μL of Griess reagent, and the absorbance is measured at 540 nm after 10 min of reaction at room temperature and protected from light using an enzyme labeler (Biotek instruments, Winooski, VT, USA), and the NO yield is calculated by substituting the absorbance value of the samples into the standard curve, using sodium nitrite as the standard.
substance,measurement,value
lipopolysaccharide [Positive control group],NO yield,41.06 µmol/L

# From patent US20240218084A1, “METHOD FOR PURIFYING FOMES OFFICINALIS POLYSACCHARIDE BY SEQUENTIAL SIMULATED MOVING CHROMATOGRAPHY” (HEILONGJIANG BAYI AGRICULTURAL UNIVERSITY, priority 2022, published 2024)
